Test results taken from patent US20040076974A1, “Liver necrosis predictive genes” (priority 2002, published 2004).
Several values for one entry are separate records, joined by “and”; a condition that tells them apart may be missing. Equal entries are not always repeated. Where two headings read alike, the source gives them in different places.

How the values were obtained:
[1] = test system: toxicologically relevant rat genes (rat CT array)
Sprague Dawley rats = conditions: for Liver Necrosis / Score (histopathology liver necrosis severity score): rat, intraperitoneal; for Liver Necrosis: 72 hours after treatment; for Score (histopathology liver necrosis severity score): 72 hours, 1 = not remarkable, 2 and higher increasing severity
Summary of the method: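 Toxicity calls (necrosis present or absent at 72 h) and histopathology scores were correlated with tissue gene expression from Crl:CD Sprague Dawley rats. Animals, usually 3 treated with compound by i.p. route and 3 given vehicle, were killed at 6, 24 or 72 h and tissues frozen immediately in liquid nitrogen.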

**Q.** With `Brc1ccccc1` [bromobenzene] as the compound, how does the “Ribosomal protein L13A expression (treatment/control)” value ([1]; 24 h, dose 200, listed as BRB) read?
**A.** 2.014 and 1.811 and 2.099

**Q.** What about the “Ribosomal protein S8 expression (treatment/control)” value ([1]; 24 h, dose 200, listed as BRB) of the same compound?
**A.** 2.657 and 2.216 and 2.391

**Q.** And the “Ribosomal protein S9 expression (treatment/control)” value ([1]; 24 h, dose 200, listed as BRB)?
**A.** 1.821 and 1.272 and 1.544

**Q.** What about the “Ribosomal protein S17 expression (treatment/control)” value ([1]; 24 h, dose 200, listed as BRB) of the same compound?
**A.** 2.853 and 2.061 and 2.44

**Q.** What about the “Superoxide dismutase Mn expression (treatment/control)” value ([1]; 24 h, dose 200, listed as BRB) of the same compound?
**A.** 2.675 and 1.611 and 3.075

**Q.** What about the “T-cell cyclophilin expression (treatment/control)” value ([1]; 24 h, dose 200, listed as BRB) of the same compound?
**A.** 1.63 and 1.482 and 1.522

**Q.** What about the “Thymosin beta-10 expression (treatment/control)” value ([1]; 24 h, dose 200, listed as BRB) of the same compound?
**A.** 1.331 and 1.367 and 1.373

**Q.** What about the “Ubiquitin conjugating enzyme (RAD 6 homologue) expression (treatment/control)” value ([1]; 24 h, dose 200, listed as BRB) of the same compound?
**A.** 1.182 and 0.8017 and 1.22

**Q.** And the “Uncoupling protein 2 expression (treatment/control)” value ([1]; 24 h, dose 200, listed as BRB)?
**A.** 0.9873 and 1.103

**Q.** And the “c-H-ras expression (treatment/control)” value ([1]; 24 h, dose 200, listed as BRB)?
**A.** 1.3

**Q.** And the “c-jun expression (treatment/control)” value ([1]; 24 h, dose 200, listed as BRB)?
**A.** 1.819 and 1.494 and 2.242

**Q.** What about the “p53 expression (treatment/control)” value ([1]; 24 h, dose 200, listed as BRB) of the same compound?
**A.** 1.448 and 1.7

**Q.** What about the “{Ribosomal protein L6} expression (treatment/control)” value ([1]; 24 h, dose 200, listed as BRB) of the same compound?
**A.** 2.964 and 2.141 and 2.538

**Q.** What about the “14-3-3 zeta expression (treatment/control)” value ([1]; 24 h, dose 800, listed as BRB) of the same compound?
**A.** 1.787 and 1.416 and 1.415

**Q.** What about the “17-beta hydroxysteroid dehydrogenase, type 2 expression (treatment/control)” value ([1]; 24 h, dose 800, listed as BRB) of the same compound?
**A.** 0.2858 and 0.3548 and 0.3188

**Q.** And the “Cathepsin L, sequence 2 expression (treatment/control)” value ([1]; 24 h, dose 800, listed as BRB)?
**A.** 3.444 and 2.804 and 1.941

**Q.** And the “Dynamin-1 (D100) expression (treatment/control)” value ([1]; 24 h, dose 800, listed as BRB)?
**A.** 0.7266 and 0.7238 and 0.7854

**Q.** And the “Gadd45 expression (treatment/control)” value ([1]; 24 h, dose 800, listed as BRB)?
**A.** 3.152 and 4.261 and 2.965

**Q.** And the “Gamma-actin, cytoplasmic expression (treatment/control)” value ([1]; 24 h, dose 800, listed as BRB)?
**A.** 4.159 and 3.751 and 3.387

**Q.** What about the “Insulin-like growth factor binding protein 1 expression (treatment/control)” value ([1]; 24 h, dose 800, listed as BRB) of the same compound?
**A.** 2.338 and 2.353 and 1.62

**Q.** And the “L-gulono-gamma-lactone oxidase expression (treatment/control)” value ([1]; 24 h, dose 800, listed as BRB)?
**A.** 0.3036 and 0.326 and 0.3525

**Q.** And the “Matrin F/G expression (treatment/control)” value ([1]; 24 h, dose 800, listed as BRB)?
**A.** 0.4315 and 0.4295 and 0.6079

**Q.** And the “Ornithine decarboxylase expression (treatment/control)” value ([1]; 24 h, dose 800, listed as BRB)?
**A.** 2.92 and 2.902 and 2.002

**Q.** What about the “PAR interacting protein expression (treatment/control)” value ([1]; 24 h, dose 800, listed as BRB) of the same compound?
**A.** 3.554 and 2.34

**Q.** And the “Phase-1 RCT-33 expression (treatment/control)” value ([1]; 24 h, dose 800, listed as BRB)?
**A.** 0.6976 and 0.5633 and 0.5757

**Q.** What about the “Phase-1 RCT-36 expression (treatment/control)” value ([1]; 24 h, dose 800, listed as BRB) of the same compound?
**A.** 0.7359 and 0.7782

**Q.** And the “Phase-1 RCT-38 expression (treatment/control)” value ([1]; 24 h, dose 800, listed as BRB)?
**A.** 0.4296 and 0.4024 and 0.4536

**Q.** What about the “Phase-1 RCT-39 expression (treatment/control)” value ([1]; 24 h, dose 800, listed as BRB) of the same compound?
**A.** 1.555 and 1.399

**Q.** What about the “Phase-1 RCT-40 expression (treatment/control)” value ([1]; 24 h, dose 800, listed as BRB) of the same compound?
**A.** 0.4257 and 0.4952 and 0.445

**Q.** What about the “Phase-1 RCT-48 expression (treatment/control)” value ([1]; 24 h, dose 800, listed as BRB) of the same compound?
**A.** 0.6158 and 0.633

**Q.** And the “Phase-1 RCT-49 expression (treatment/control)” value ([1]; 24 h, dose 800, listed as BRB)?
**A.** 2.478 and 2.062 and 1.658

**Q.** And the “Phase-1 RCT-50 expression (treatment/control)” value ([1]; 24 h, dose 800, listed as BRB)?
**A.** 2.438 and 2.537 and 1.76

**Q.** What about the “Phase-1 RCT-68 expression (treatment/control)” value ([1]; 24 h, dose 800, listed as BRB) of the same compound?
**A.** 2.05 and 1.892 and 1.519

**Q.** And the “Phase-1 RCT-78 expression (treatment/control)” value ([1]; 24 h, dose 800, listed as BRB)?
**A.** 0.5752 and 0.6922 and 0.6621

**Q.** And the “Phase-1 RCT-83 expression (treatment/control)” value ([1]; 24 h, dose 800, listed as BRB)?
**A.** 0.6019 and 0.6858 and 0.5634

**Q.** What about the “Phase-1 RCT-89 expression (treatment/control)” value ([1]; 24 h, dose 800, listed as BRB) of the same compound?
**A.** 0.4544 and 0.462 and 0.4723

**Q.** What about the “Phase-1 RCT-92 expression (treatment/control)” value ([1]; 24 h, dose 800, listed as BRB) of the same compound?
**A.** 0.4761 and 0.6497 and 0.7002

**Q.** And the “Phase-1 RCT-128 expression (treatment/control)” value ([1]; 24 h, dose 800, listed as BRB)?
**A.** 0.5684 and 0.564 and 0.6

**Q.** And the “Phase-1 RCT-144 expression (treatment/control)” value ([1]; 24 h, dose 800, listed as BRB)?
**A.** 3.092 and 2.983 and 2.106

**Q.** And the “Phase-1 RCT-145 expression (treatment/control)” value ([1]; 24 h, dose 800, listed as BRB)?
**A.** 2.75 and 1.96 and 1.846

**Q.** What about the “Phase-1 RCT-180 expression (treatment/control)” value ([1]; 24 h, dose 800, listed as BRB) of the same compound?
**A.** 1.726

**Q.** What about the “Phase-1 RCT-182 expression (treatment/control)” value ([1]; 24 h, dose 800, listed as BRB) of the same compound?
**A.** 0.5041 and 0.56 and 0.6572

**Q.** And the “Phase-1 RCT-207 expression (treatment/control)” value ([1]; 24 h, dose 800, listed as BRB)?
**A.** 3.826 and 2.754 and 2.464

**Q.** What about the “Phase-1 RCT-213 expression (treatment/control)” value ([1]; 24 h, dose 800, listed as BRB) of the same compound?
**A.** 2.021 and 2.316 and 1.605

**Q.** What about the “Phase-1 RCT-256 expression (treatment/control)” value ([1]; 24 h, dose 800, listed as BRB) of the same compound?
**A.** 0.3752 and 0.4196 and 0.4307

**Q.** What about the “Phase-1 RCT-258 expression (treatment/control)” value ([1]; 24 h, dose 800, listed as BRB) of the same compound?
**A.** 1.65

**Q.** What about the “Phase-1 RCT-264 expression (treatment/control)” value ([1]; 24 h, dose 800, listed as BRB) of the same compound?
**A.** 0.3546 and 0.4999 and 0.3553

**Q.** And the “Phase-1 RCT-271 expression (treatment/control)” value ([1]; 24 h, dose 800, listed as BRB)?
**A.** 0.5889 and 0.6221

**Q.** And the “Phase-1 RCT-288 expression (treatment/control)” value ([1]; 24 h, dose 800, listed as BRB)?
**A.** 0.3511 and 0.3915 and 0.4038

**Q.** And the “Phase-1 RCT-291 expression (treatment/control)” value ([1]; 24 h, dose 800, listed as BRB)?
**A.** 0.6663 and 0.746 and 0.732

**Q.** What about the “Phase-1 RCT-295 expression (treatment/control)” value ([1]; 24 h, dose 800, listed as BRB) of the same compound?
**A.** 1.75 and 2.065 and 1.52

**Q.** And the “Phase-1 RCT-296 expression (treatment/control)” value ([1]; 24 h, dose 800, listed as BRB)?
**A.** 0.3839 and 0.27 and 0.2605

**Q.** And the “Ribosomal protein S17 expression (treatment/control)” value ([1]; 24 h, dose 800, listed as BRB)?
**A.** 2.61 and 2.612 and 1.969

**Q.** What about the “Senescence marker protein-30 expression (treatment/control)” value ([1]; 24 h, dose 800, listed as BRB) of the same compound?
**A.** 0.1397 and 0.1646 and 0.1474

**Q.** And the “Zinc finger protein expression (treatment/control)” value ([1]; 24 h, dose 800, listed as BRB)?
**A.** 3.935 and 2.153 and 2.076

**Q.** What about the “Paraoxonase 1 expression (treatment/control)” value ([1]; rat, in vivo) of the same compound?
**A.** 0.8235 and 0.866 and 0.513

**Q.** What about the “Liver Toxicity Necrosis Classification” value (Sprague Dawley rats; 72 h, compound-dose group, dose BRB 800, BUS 14, CAD 1, CAR 16) of the same compound?
**A.** yes

**Q.** And the “Liver Toxicity Necrosis Classification” value (Sprague Dawley rats; 72 h, dose 200, animals 2327, 2328, 2329)?
**A.** yes

**Q.** And the “Liver Toxicity Necrosis Classification” value (Sprague Dawley rats; 72 h, dose 800, animal 2337)?
**A.** yes

**Q.** What about the “Liver Toxicity Necrosis Classification” value (Sprague Dawley rats; compound-dose group at 72 h, dose 200, yes = necrosis observed) of the same compound?
**A.** yes

**Q.** What about the “Liver Toxicity Necrosis Classification” value (Sprague Dawley rats; compound-dose group at 72 h, dose 800, yes = necrosis observed) of the same compound?
**A.** yes

**Q.** What about the “Liver Toxicity Necrosis Classification” value (Sprague Dawley rats; compound-dose group at 72 h, dose 200) of the same compound?
**A.** yes

**Q.** What about the “Liver Toxicity Necrosis Classification” value (Sprague Dawley rats; compound-dose group at 72 h, dose 800) of the same compound?
**A.** yes

**Q.** And the “Liver Necrosis” value (Sprague Dawley rats; dose 0.2 ml/kg)?
**A.** Yes

**Q.** And the “Score (histopathology liver necrosis severity score)” value (Sprague Dawley rats; dose 0.2 ml/kg)?
**A.** 2

**Q.** What about the “Liver Necrosis” value (Sprague Dawley rats; dose 0.8 ml/kg) of the same compound?
**A.** Yes

**Q.** And the “Score (histopathology liver necrosis severity score)” value (Sprague Dawley rats; dose 0.8 ml/kg)?
**A.** 4
